From publication PMC8126080, “Three Small Molecule Entities (MPK18, MPK334 and YAK308) with Activity against Haemonchus contortus In Vitro” (Molecules, 2021) come the findings set out here.

“Also recorded” adds a separate entry of the source. Read-outs that look alike come from different tables or passages of the source.

Holding throughout (assay type): cell-based
The subject of series [1] is exsheathed third-stage larvae (xL3) of Haemonchus contortus. As to the kind of experiment: Primary phenotypic screen on xL3s at 20 µM (video recording, 72 h). Conditions: for proportion of xL3s exhibiting the phenotype in the primary screen: 72 h, visual inspection of video recordings; for phenotype induced in xL3s in the primary screen: 72 h of exposure. On the procedure: A library containing 245 compounds (Supplementary Table S1) was curated by the authors (T.K. and B.L.) at the Institute of Pharmaceutical and Medicinal Chemistry, Heinrich-Heine-University Düsseldorf, Germany. Individual compounds were dissolved in 100% high-performance liquid chromatography-grade dimethyl sulfoxide (DMSO; Merck, USA) to achieve stock concentrations of 20 mM. For screening, individual compounds were diluted further to the final concentration of 20 µM in Luria Bertani broth (LB) supplemented with 100 U/mL of penicillin, 100 μg/mL of streptomycin and 0.25 μg/mL of amphotericin B (designated LB*), and tested for activity in vitro against H. contortus.
(§1) Haemonchus contortus (Haecon-5 strain) was maintained in experimental sheep, in accordance with institutional animal ethics approval (permit no. 1714374; The University of Melbourne). Helminth-free Merino sheep (male; eight months of age) were inoculated orally with 7000 third-stage larvae (L3s) of H. contortus. Faecal samples containing H. contortus eggs were collected every day from 21 days following inoculation. These samples were incubated at 27 °C for one week to produce L3s, which were harvested and sieved through two layers of nylon mesh ([…] pore size; Rowe Scientific, Australia) to remove debris and dead larvae, and then stored at 11 °C for up to 6 months until use. To produce exsheathed third-stage larvae (xL3s) for in vitro assays, L3s were incubated in 0.15% (v/v) sodium hypochlorite for 20 min at 37 °C followed by five washes in 0.9% sterile saline by centrifugation at 600× g (5 min) at room temperature (22–24 °C).
Compounds were screened at 20 μM on H. contortus xL3s using an established assay. In brief, diluted test-compounds, negative controls (LB* + 0.5% DMSO) and two positive controls [20 μM of monepantel (Zolvix, Novartis Animal Health, Switzerland) and 20 μM of moxidectin (Cydectin, Virbac, France)] were added to wells of the 96-well microtiter plates (Corning, USA), and xL3s were dispensed at ~300/well to a final volume of 100 µL. Following a 72 h-incubation at 38 °C and 10% (v/v) CO2 at >90% humidity, a video recording (5 s) was taken of each well of the 96-well microtitre plate containing xL3s using a gray–scale camera (Rolera Bolt Scientific CMOS, Teledyne QImaging, Tucson, AZ, USA) and a motorised X–Y axis stage (BioPoint 2, Ludl Electronics Products, Hawthorne, CA, USA) attached to a stereomicroscope (SZ61, Olympus, Shinjuku, Japan). Primary screening was performed in duplicate. A compound was recorded as having activity if it altered worm morphology (phenotype) after 72 h of incubation.

The test system is the same in series [2]. As to the kind of experiment: Dose-response assay, inhibition of larval motility. Conditions: for xL3 Motility (72 h) Inhibition (%): concentration not given; for IC50: Haemonchus contortus, 72 h incubation, mean ± SEM, three independent experiments in triplicate. On the procedure: as §1
Three compounds (designated MPK18, MPK334 and YAK308) shown to have activity against H. contortus in the primary screen were evaluated for their potency by estimating their half maximal inhibitory concentrations (IC50), calculated in a dose-response assay. In brief, compounds were titrated (18-points, 2-fold serial dilution in 50 μL of LB*, 100 µM down to 0.76 nM), in 96-well microtitre plates and xL3s were dispensed in 50 µL at a density of ~300 per well. All plates were incubated at 38 °C and 10% (v/v) CO2 with >90% humidity. After 72 h of incubation, a video recording (5 s) was taken of each well in the same camera settings as the primary screen (see Section 3.3), and larval motility measured. The motility index (Mi) was calculated from video data using the unique algorithm written in a custom macro, and analysed through the program ImageJ (v.2.0.0, Fiji). Mi data were normalised to a percentage compared with negative control (LB* + 0.5% DMSO). Monepantel and moxidectin were diluted in the same manner, and used as positive control compounds. Assays were performed in triplicate, three times, on separate days. To establish IC50 values, compound concentrations were log10-transformed, fitted using a variable slope four-parameter equation, constraining the maximum value to 100% using a least squares (ordinary) fit model employing GraphPad Prism (v. 9.0.2) software.

Series [3] deals with exsheathed third-stage larvae (xL3) / fourth-stage larvae (L4) of Haemonchus contortus. As to the kind of experiment: Dose-response assay, inhibition of larval development (xL3 to L4) and phenotype over 7 days. Conditions: seven days; for proportion of larvae exhibiting the phenotype at 100 µM / phenotype of larvae after exposure for 7 days: 100 µM; for phenotype of larvae after exposure for 7 days: xL3s/L4s; for IC50: Haemonchus contortus, 168 h. On the procedure: as §1
Following the measurement of larval motility at 72 h, plates containing xL3s were incubated for four more days at 38 °C [10% (v/v) CO2 and >90% relative humidity] to test the active compounds (MPK18, MPK334 and YAK308) for their effect on the larval development over 7 days. Subsequently, worms were fixed in 1% iodine, and the rate of larval development was assessed microscopically appraising the presence (L4) or absence (xL3) of mouth and pharynx, and direct comparison with negative (untreated) controls (LB* + 0.5% DMSO). Thirty worms from each well were examined at 50-times magnification, and the number of L4s was expressed as a percentage of the total number. Assays were performed in triplicate, three times, on separate days. To establish IC50 values, compound concentrations were log10-transformed, fitted using a variable slope four-parameter equation with constraining the top value to 100% using a least squares (ordinary) fit model using GraphPad Prism (v. 9.0.2) software.

The nature of series [4]: Toxicity on HepG2 cells (crystal violet staining). To be noted: HepG2 human hepatoma cells. As to the method: HepG2 human hepatoma cells were seeded into wells of a 96-well microtitre plate in 80 µL of Dulbecco’s modified eagle medium (DMEM), supplemented with 10% foetal bovine serum, 100 U/mL of penicillin, 100 µg/mL of streptomycin and 0.25 µg/mL of amphotericin B (DMEM*) at a density of 1 × 10^5 cells per well. Cells were allowed to adhere for 16 h at 37 °C and 5% (v/v) CO2 at >90% humidity, and incubated with individual, serially-diluted compounds (7-points, 2-fold dilution in DMEM*, from 100 µM to 1.56 µM) in a final volume of 100 µL. Doxorubicin (10 µM) and DMEM* + 0.25% DMSO (vehicle), serving as positive and negative controls, respectively, were added to the individual 96-well plates. Monepantel and moxidectin were also serially diluted—prepared in the same manner as active compounds—and used as ‘negative’ reference controls. After 48 h of incubation, cellular viability was determined by the crystal violet staining assay. The absorbance at 595 nm of treated cells was compared with that of the controls (exposed only to the vehicle, with 100% viability). Compounds and controls were tested in triplicate. To determine the half cytotoxic concentration (CC50) values, compound concentrations were log10-transformed, fitted using a variable slope four-parameter equation with a least squares (ordinary) fit model employing GraphPad Prism (v. 9.0.2) software.

Where [5] appears, read: mean ± SEM, read-out: L4 Development (7 days) IC50 ± SEM.

One may read the CC50 as the concentration that lowers cell viability or growth by half. The low end stands for greater toxicity to the cells, the high end for lower toxicity to the cells. As for `COc1cc(OC)cc(C(=O)Nc2nc(-c3ccccc3)cs2)c1` [YAK308], in series [1], the “proportion of xL3s exhibiting the phenotype in the primary screen” value (shortened to “proportion … in the primary screen”) is given as ~ 90% and the “phenotype induced in xL3s in the primary screen” value (from here on “phenotype induced in xL3s”) is recorded as “curved”. Besides, the “phenotype induced in xL3s” value in series [1] (listed as YAK 308) is listed as “Curved”. In series [2], the “xL3 Motility (72 h) Inhibition (%)” value was 34.6% and the IC50 was 52.7 ± 6.7 µM. Further, in series [3], the “proportion of larvae exhibiting the phenotype at 100 µM” value came out at 22%; the “phenotype of larvae after exposure for 7 days” value (“phenotype of larvae” for short) is “evisceration and evi”. In addition, the IC50 in series [3] (setting [5]) came to 6.5 ± 1.6 µM. Also, the CC50 at 48 h in series [4] was over 100 µM.

`O=C(/C=C/c1ccccc1)c1ccc(Br)cc1O` [MPK334]: in series [1], the “proportion … in the primary screen” value is ~ 50% and the “phenotype induced in xL3s” value is listed as “coiled”. In addition, in series [2], the “xL3 Motility (72 h) Inhibition (%)” value was found to be 74.2% and the IC50 came to 17.1 ± 4.2 µM. Also, in series [3], the “proportion of larvae exhibiting the phenotype at 100 µM” value stood at 100% and the “phenotype of larvae” value is reported as “curved”. In addition, in series [3] (setting [5]), the IC50 came to 12.3 ± 2.3 µM. In addition, the cytotoxic concentration (CC50) at 48 h in series [4] was over 100 µM.

On to `CO/N=C1\C[C@]2(C[C@@H]3C[C@@H](C/C=C(\C)C[C@@H](C)/C=C/C=C4\CO[C@@H]5[C@H](O)C(C)=C[C@@H](C(=O)O3)[C@]45O)O2)O[C@H](/C(C)=C/C(C)C)[C@H]1C` [Moxidectin, moxidectin, reference compound], for which the “phenotype induced in xL3s” value in series [1] was “Relaxed”. In series [2], the “xL3 Motility (72 h) Inhibition (%)” value was 85.1% and the IC50 was found to be 0.8 ± 0.2 µM. Moreover, the IC50 in series [3] (setting [5]) came out at 12.4 ± 0.1 µM. In series [4], this compound returned a CC50 at 48 h of over 100 µM.

Turning to `Cc1ccc(/C=C/C(=O)NOCc2ccccc2)cc1` [MPK18], in series [1], the “proportion … in the primary screen” value is given as ~ 50% and the “phenotype induced in xL3s” value is recorded as “coiled”. In series [2], the “xL3 Motility (72 h) Inhibition (%)” value was 30.0% and the IC50 was determined as 45.2 ± 4.6 µM. The “phenotype of larvae” value in series [3] is listed as “not observed; also recorded: Wild type”. Besides, in series [3] (read-out: concentration at which active on larval development (IC50 not determined)), the IC50 was over 25 µM. In series [4], this compound registered a CC50 at 48 h of over 100 µM.

As to `C[C@](C#N)(COc1cc(C#N)ccc1C(F)(F)F)NC(=O)c1ccc(SC(F)(F)F)cc1` [Monepantel, monepantel, reference compound], in series [1], the “phenotype induced in xL3s” value is recorded as “Coiled”. Moreover, in series [2], the “xL3 Motility (72 h) Inhibition (%)” value came to 90.3% and the IC50 stood at 0.6 ± 0.1 µM. In addition, the IC50 in series [3] (setting [5]) was 0.4 ± 0.05 µM. Besides, the cytotoxic concentration (CC50) at 48 h in series [4] is over 100 µM.
